# From ChEMBL document CHEMBL1153101, “Hit to lead studies on (hetero)arylpyrimidines--agonists of the canonical Wnt-beta-catenin cellular messaging system” (Bioorg Med Chem Lett, 2010)
# pEC50, pIC50: −log10 of the molar value. Calls of active or inactive are those of the source. The rule behind the calls is not given here.
# How the values were obtained:
# U2OS = test: Activation of Wnt-3a/Dkk-1 expressed in human U2OS cells at 20 uM by TCF-luciferase assay relative to control; type: cell-based
# [1] = Activation of Wnt-3a/Dkk-1 expressed in human U2OS cells by TCF-luciferase assay; type: cell-based
# [2] = Permeability by PAMPA; type: ADME; conditions: read-out: permeability
# [3] = Aqueous solubility of the compound; type: physicochemical
# [4] = Metabolic stability in rat liver microsomes; type: ADME, Microsome
# Mus musculus [5] = test: Osteogenic activity in wild type C57BL/6 mouse calvaria in vivo assessed as increase in mineral apposition rate at 0.1 mg/kg/day by histomorphometry measurement
# Mus musculus [6] = test: Osteogenic activity in wild type C57BL/6 mouse calvaria in vivo assessed as increase in mineral apposition rate at 0.03 mg/kg/day by histomorphometry measurement
# [7] = Inhibition of Wnt-3a/Dkk-1-mediated [32P]GSk3beta phosphorylation in human U2OS cells at 20 uM by TCF-luciferase assay relative to control; type: cell-based
# Mus musculus [8] = test: Osteogenic activity in wild type C57BL/6 mouse calvaria in vivo assessed as non phosphorylated beta-catenin at 1 mg/kg/day by immunohistochemistry
# Mus musculus [9] = test: Osteogenic activity in wild type C57BL/6 mouse calvaria in vivo assessed as non phosphorylated beta-catenin at 0.3 mg/kg/day by immunohistochemistry
pEC50 [1],SMILES,fold change (FC) (U2OS),further results
4.33,O=[N+]([O-])c1cccc(-c2ccnc(NCCCn3ccnc3)n2)c1,3.6,
4.92,c1ccc2cc(-c3ccnc(NCCc4c[nH]cn4)n3)ccc2c1,1.1,
4.53,Cc1cc(C)n(CCCNc2nccc(-c3ccncc3)n2)n1,2.1,
4.84,CCOC[C@H](Cc1c[nH]cn1)Nc1nccc(-c2ccc3ccccc3c2)n1,1.9,
5.06,c1cncc(-c2ccnc(NCCCn3ccnc3)n2)c1,4.7,
5.39,c1cncc(-c2ccnc(NCCc3c[nH]c4ccccc34)n2)c1,10,
4.80,OC[C@H](Cc1cn(Cc2cc(F)cc(F)c2)cn1)Nc1nccc(-c2cc3ccccc3s2)n1,1.7,
5.57,c1ccc2c(CCNc3nccc(-c4ccncc4)n3)c[nH]c2c1,7.5,
5.34,c1cncc(CCNc2nccc(-c3ccncc3)n2)c1,2.8,
5.17,OC[C@H](Cc1c[nH]cn1)Nc1nccc(-c2ccc3ccccc3c2)n1,4.9,Papp [2]: 0.13 ×10⁻⁶ cm/s; solubility [3]: 65 µg/mL; half-life [4]: ≥ 1.33 h; Activity (Mus musculus [5]): Active; Activity (Mus musculus [6]): Active
4.84,C#CCn1cnc(C[C@@H](CO)Nc2nccc(-c3cc4ccccc4s3)n2)c1,3,
4.68,C=C1CCCCC1OC[C@H](Cc1c[nH]cn1)Nc1nccc(-c2ccc3ccccc3c2)n1 (stereo partly drawn),2.2,
4.91,Cc1[nH]c2ccc(O)cc2c1CCNc1nccc(-c2cccnc2)n1,5.1,
4.69,c1cncc(-c2ccnc(NCCc3ccncc3)n2)c1,3.4,
,N#CCCn1cnc(C[C@@H](CO)Nc2nccc(-c3ccc4ccccc4c3)n2)c1,5.5,
,C#CCOC[C@H](Cc1c[nH]cn1)Nc1nccc(-c2cc3ccccc3s2)n1,3.5,
,NC(=O)Cn1cnc(C[C@@H](CO)Nc2nccc(-c3ccc4ccccc4c3)n2)c1,3.9,
,OC[C@H](Cc1cn(Cc2cc(F)cc(F)c2)cn1)Nc1nccc(-c2ccc3ccccc3c2)n1,2,
5.38,c1cc(-c2ccnc(NCCCn3ccnc3)n2)ccn1,2.9,pIC50 [7]: 4.29; Activity (Mus musculus [8]): Active; Activity (Mus musculus [9]): Active; Activity (Mus musculus [5]): Active; Activity (Mus musculus [6]): Active
4.96,Fc1c(COC[C@H](Cc2c[nH]cn2)Nc2nccc(-c3ccc4ccccc4c3)n2)cccc1C(F)(F)F,1.6,
5.48,c1ccc2sc(-c3ccnc(NCCc4c[nH]cn4)n3)cc2c1,3.7,
5.17,c1cc(CCNc2nccc(-c3ccncc3)n2)ccn1,4.3,
,N#CCCn1cnc(C[C@@H](CO)Nc2nccc(-c3cc4ccccc4s3)n2)c1,4.1,

SMILES,pEC50 [1],fold change (FC) (U2OS),further results
c1cncc(-c2ccnc(NCCc3c[nH]cn3)n2)c1,4.54,3.1,
